ChEMBL document CHEMBL1201861, “Genomics of Drug Sensitity in Cancer screening data, Wellcome Trust Sanger Institute”
Blank lines part the entries; values can stand above or below the compound they belong to.

Experiments:
Assay in all cases: cells
Type in all cases: functional, cell-based, Homo sapiens
COR-L105 = settings: Homo sapiens, COR-L105;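 also: cell growth inhibition determined with a viability assay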
Description: SANGER: Inhibition of human COR-L105 cell growth in a cell viability assay.

Calu-3 = settings: Homo sapiens, Calu-3;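 also: growth inhibition of human Calu-3 cells, determined with a cell viability assay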
Description: SANGER: Inhibition of human Calu-3 cell growth in a cell viability assay.

D-423MG = settings: Homo sapiens, D-423MG
Description: SANGER: Inhibition of human D-423MG cell growth in a cell viability assay.

EPLC-272H = settings: Homo sapiens, EPLC-272H
Description: SANGER: Inhibition of human EPLC-272H cell growth in a cell viability assay.

HCT-15 = settings: Homo sapiens, HCT-15;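 also: cell viability readout, IC50 reflecting suppression of HCT-15 cell growth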
Description: SANGER: Inhibition of human HCT-15 cell growth in a cell viability assay.

HLE = settings: Homo sapiens, HLE;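 also: growth inhibition of human HLE cells, read out by a cell viability assay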
Description: SANGER: Inhibition of human HLE cell growth in a cell viability assay.

HSC-2 = settings: Homo sapiens, HSC-2;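 also: growth inhibition of human HSC-2 cells, read out by a cell viability assay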
Description: SANGER: Inhibition of human HSC-2 cell growth in a cell viability assay.

HT-1376 = settings: Homo sapiens, HT-1376
Description: SANGER: Inhibition of human HT-1376 cell growth in a cell viability assay.

HT-29 = settings: Homo sapiens, HT-29;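 also: growth inhibition of human HT-29 cells, read out by a cell viability assay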
Description: SANGER: Inhibition of human HT-29 cell growth in a cell viability assay.

HT55 = settings: Homo sapiens, HT55;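 also: cell viability readout measuring growth inhibition of human HT55 cells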
Description: SANGER: Inhibition of human HT55 cell growth in a cell viability assay.

JEG-3 = settings: Homo sapiens, JEG-3;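 also: growth inhibition of human JEG-3 cells, read out with a cell viability assay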
Description: SANGER: Inhibition of human JEG-3 cell growth in a cell viability assay.

MFE-280 = settings: Homo sapiens, MFE-280;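 also: growth inhibition of MFE-280 cells, determined with a cell viability readout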
Description: SANGER: Inhibition of human MFE-280 cell growth in a cell viability assay.

NB14 = settings: Homo sapiens, NB14;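 also: growth inhibition of NB14 cells measured with a cell viability assay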
Description: SANGER: Inhibition of human NB14 cell growth in a cell viability assay.

NCI-H1573 = settings: Homo sapiens, NCI-H1573;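 also: growth inhibition of NCI-H1573 cells, read out with a cell viability assay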
Description: SANGER: Inhibition of human NCI-H1573 cell growth in a cell viability assay.

NCI-H1792 = settings: Homo sapiens, NCI-H1792;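 also: growth inhibition of human NCI-H1792 cells, read out as cell viability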
Description: SANGER: Inhibition of human NCI-H1792 cell growth in a cell viability assay.

NCI-H1993 = settings: Homo sapiens, NCI-H1993;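 also: growth inhibition of the cancer cell line, assessed with a cell viability assay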
Description: SANGER: Inhibition of human NCI-H1993 cell growth in a cell viability assay.

NCI-H2009 = settings: Homo sapiens, NCI-H2009;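 also: cell viability assay measuring inhibition of NCI-H2009 cell growth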
Description: SANGER: Inhibition of human NCI-H2009 cell growth in a cell viability assay.

NCI-H2122 = settings: Homo sapiens, NCI-H2122;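 also: growth inhibition of the cells, read out with a cell viability assay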
Description: SANGER: Inhibition of human NCI-H2122 cell growth in a cell viability assay.

NCI-H2342 = settings: Homo sapiens, NCI-H2342;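 also: growth inhibition of the cancer cell line, determined with a cell viability assay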
Description: SANGER: Inhibition of human NCI-H2342 cell growth in a cell viability assay.

NCI-H441 = settings: Homo sapiens, NCI-H441;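 also: growth inhibition of NCI-H441 cells, read out with a cell viability assay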
Description: SANGER: Inhibition of human NCI-H441 cell growth in a cell viability assay.

NCI-H596 = settings: Homo sapiens, NCI-H596;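 also: growth inhibition of NCI-H596 cells, read out with a cell viability assay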
Description: SANGER: Inhibition of human NCI-H596 cell growth in a cell viability assay.

NCI-H661 = settings: Homo sapiens, NCI-H661;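 also: cell viability assay read-out, IC50 being the concentration that inhibits growth of the cells by half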
Description: SANGER: Inhibition of human NCI-H661 cell growth in a cell viability assay.

NCI-H810 = settings: Homo sapiens, NCI-H810;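 also: IC50 reflects inhibition of cancer cell line growth, read out with a cell viability assay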
Description: SANGER: Inhibition of human NCI-H810 cell growth in a cell viability assay.

P12-Ichikawa = settings: Homo sapiens, P12-Ichikawa
RMG-I = settings: Homo sapiens, RMG-I;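 also: growth inhibition of human RMG-I cells, read out with a cell viability assay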
Description: SANGER: Inhibition of human RMG-I cell growth in a cell viability assay.

RO82-W-1 = settings: Homo sapiens, RO82-W-1;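 also: growth inhibition of human RO82-W-1 cells, measured with a cell viability assay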
Description: SANGER: Inhibition of human RO82-W-1 cell growth in a cell viability assay.

RPMI-7951 = settings: Homo sapiens, RPMI-7951
Description: SANGER: Inhibition of human RPMI-7951 cell growth in a cell viability assay.

SAS = settings: Homo sapiens, SAS;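 also: growth inhibition of SAS cells, read out with a cell viability assay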
Description: SANGER: Inhibition of human SAS cell growth in a cell viability assay.

SK-LU-1 = settings: Homo sapiens, SK-LU-1;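 also: cell viability assay measuring growth inhibition of human SK-LU-1 cells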
Description: SANGER: Inhibition of human SK-LU-1 cell growth in a cell viability assay.

SK-N-AS = settings: Homo sapiens, SK-N-AS;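 also: growth inhibition of human SK-N-AS cells, measured with a cell viability assay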
Description: SANGER: Inhibition of human SK-N-AS cell growth in a cell viability assay.

SW1088 = settings: Homo sapiens, SW1088;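 also: growth inhibition of human SW1088 cells, read out by a cell viability assay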
Description: SANGER: Inhibition of human SW1088 cell growth in a cell viability assay.

SW948 = settings: Homo sapiens, SW948;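 also: growth inhibition of SW948 cells, read out with a cell viability assay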
Description: SANGER: Inhibition of human SW948 cell growth in a cell viability assay.

T84 = settings: Homo sapiens, T84;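 also: growth inhibition measured with a cell viability readout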
Description: SANGER: Inhibition of human T84 cell growth in a cell viability assay.

AGS = settings: Homo sapiens, AGS;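 also: growth inhibition of AGS cells, determined with a cell viability assay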
Description: SANGER: Inhibition of human AGS cell growth in a cell viability assay.

AU565 = settings: Homo sapiens, AU565;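 also: cell viability assay measuring growth inhibition of human AU565 cells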
Description: SANGER: Inhibition of human AU565 cell growth in a cell viability assay.

BEN = settings: Homo sapiens, BEN;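 also: growth inhibition of the BEN cell line, read out with a cell viability assay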
Description: SANGER: Inhibition of human BEN cell growth in a cell viability assay.

BFTC-905 = settings: Homo sapiens, BFTC-905
Description: SANGER: Inhibition of human BFTC-905 cell growth in a cell viability assay.

BT-549 = settings: Homo sapiens, BT-549
Description: SANGER: Inhibition of human BT-549 cell growth in a cell viability assay.

CAL-72 = settings: Homo sapiens, CAL-72;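 also: cell viability assay measuring inhibition of proliferation in the CAL-72 cell line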
Description: SANGER: Inhibition of human CAL-72 cell growth in a cell viability assay.

UACC-62 = settings: Homo sapiens, UACC-62;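 also: growth inhibition of human UACC-62 cells, read out by a cell viability assay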
Description: SANGER: Inhibition of human UACC-62 cell growth in a cell viability assay.

UMC-11 = settings: Homo sapiens, UMC-11;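 also: growth inhibition of UMC-11 cells, read out with a cell viability assay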
Description: SANGER: Inhibition of human UMC-11 cell growth in a cell viability assay.

CAMA-1 = settings: Homo sapiens, CAMA-1;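 also: growth inhibition of CAMA-1 cells, read out with a cell viability assay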
Description: SANGER: Inhibition of human CAMA-1 cell growth in a cell viability assay.

SMILES: CO[C@H]1C[C@@H]2CC[C@@H](C)[C@@](O)(O2)C(=O)C(=O)N2CCCC[C@H]2C(=O)O[C@H]([C@H](C)C[C@@H]2CC[C@@H](OC(=O)C(C)(CO)CO)[C@H](OC)C2)CC(=O)[C@H](C)/C=C(\C)[C@@H](O)[C@@H](OC)C(=O)[C@H](C)C[C@H](C)/C=C/C=C/C=C/1C [TEMSIROLIMUS]
IC50 (COR-L105): 54.5 nM | IC50 (Calu-3): > 200 nM | IC50 (D-423MG): > 200 nM | IC50 (EPLC-272H): > 200 nM | IC50 (HCT-15): > 200 nM | IC50 (HLE): 53.9 nM | IC50 (HSC-2): 200 nM | IC50 (HT-1376): > 200 nM | IC50 (HT-29): > 200 nM | IC50 (HT55): > 200 nM | IC50 (JEG-3): > 200 nM | IC50 (MFE-280): > 200 nM | IC50 (NB14): 100 nM | IC50 (NCI-H1573): > 200 nM | IC50 (NCI-H1792): > 200 nM | IC50 (NCI-H1993): > 200 nM | IC50 (NCI-H2009): > 200 nM | IC50 (NCI-H2122): > 200 nM | IC50 (NCI-H2342): > 200 nM | IC50 (NCI-H441): > 200 nM | IC50 (NCI-H596): > 200 nM | IC50 (NCI-H661): 117 nM | IC50 (NCI-H810): > 200 nM | IC50 (P12-Ichikawa): 13 nM | IC50 (RMG-I): > 200 nM | IC50 (RO82-W-1): > 200 nM | IC50 (RPMI-7951): 39 nM | IC50 (SAS): > 200 nM | IC50 (SK-LU-1): 102 nM | IC50 (SK-N-AS): 127 nM | IC50 (SW1088): 31.8 nM | IC50 (SW948): > 200 nM | IC50 (T84): > 200 nM | IC50 (AGS): 14.1 nM | IC50 (AU565): > 200 nM | IC50 (BEN): 31.5 nM | IC50 (BFTC-905): > 200 nM | IC50 (BT-549): > 200 nM | IC50 (CAL-72): > 200 nM | IC50 (UACC-62): > 200 nM | IC50 (UMC-11): 89.4 nM | IC50 (CAMA-1): 4.77 nM

IC50 (COR-L105): 711 nM | IC50 (Calu-3): 5400 nM | IC50 (D-423MG): 473 nM | IC50 (EPLC-272H): 703 nM | IC50 (HCT-15): 202 nM | IC50 (HLE): 121 nM | IC50 (HSC-2): 664 nM | IC50 (HT-1376): 1900 nM | IC50 (HT-29): 1460 nM | IC50 (HT55): 651 nM | IC50 (JEG-3): 736 nM | IC50 (MFE-280): 4590 nM | IC50 (NB14): 76.4 nM | IC50 (NCI-H1573): 7080 nM | IC50 (NCI-H1792): 690 nM | IC50 (NCI-H1993): 1040 nM | IC50 (NCI-H2009): 245 nM | IC50 (NCI-H2122): 538 nM | IC50 (NCI-H2342): 267 nM | IC50 (NCI-H441): 1730 nM | IC50 (NCI-H596): 3320 nM | IC50 (NCI-H661): 202 nM | IC50 (NCI-H810): 666 nM | IC50 (RMG-I): 207 nM | IC50 (RO82-W-1): 398 nM | IC50 (RPMI-7951): 888 nM | IC50 (SAS): 33.2 nM | IC50 (SK-LU-1): 711 nM | IC50 (SK-N-AS): 181 nM | IC50 (SW1088): 455 nM | IC50 (SW948): 32700 nM | IC50 (T84): 13900 nM | IC50 (AGS): 37.5 nM | IC50 (AU565): 353 nM | IC50 (BEN): 7410 nM | IC50 (BFTC-905): 708 nM | IC50 (BT-549): 680 nM | IC50 (CAL-72): 968 nM | IC50 (UACC-62): 34.4 nM | IC50 (UMC-11): 1310 nM | IC50 (CAMA-1): 661 nM
SMILES: CC(C)c1ccccc1Cc1cc(C(=O)Nc2ccc(S(=O)(=O)c3ccccc3C(C)(C)C)cc2)c(O)c(O)c1O

SMILES: CC(C)CCN1c2nc(Nc3cc(F)c(O)c(F)c3)ncc2N(C)C(=O)C1C (stereo not given)
IC50 (COR-L105): > 5000 nM | IC50 (Calu-3): > 5000 nM | IC50 (D-423MG): 4810 nM | IC50 (EPLC-272H): 4180 nM | IC50 (HCT-15): > 5000 nM | IC50 (HLE): > 5000 nM | IC50 (HSC-2): > 5000 nM | IC50 (HT-1376): 4230 nM | IC50 (HT-29): > 5000 nM | IC50 (HT55): > 5000 nM | IC50 (JEG-3): 3690 nM | IC50 (MFE-280): > 5000 nM | IC50 (NB14): 2110 nM | IC50 (NCI-H1573): > 5000 nM | IC50 (NCI-H1792): 2740 nM | IC50 (NCI-H1993): > 5000 nM | IC50 (NCI-H2009): > 5000 nM | IC50 (NCI-H2122): > 5000 nM | IC50 (NCI-H2342): > 5000 nM | IC50 (NCI-H441): > 5000 nM | IC50 (NCI-H596): > 5000 nM | IC50 (NCI-H661): > 5000 nM | IC50 (NCI-H810): 3220 nM | IC50 (P12-Ichikawa): 2530 nM | IC50 (RMG-I): > 5000 nM | IC50 (RO82-W-1): > 5000 nM | IC50 (RPMI-7951): 3400 nM | IC50 (SAS): > 5000 nM | IC50 (SK-LU-1): > 5000 nM | IC50 (SK-N-AS): 2290 nM | IC50 (SW1088): > 5000 nM | IC50 (SW948): > 5000 nM | IC50 (T84): > 5000 nM | IC50 (AGS): 2340 nM | IC50 (AU565): > 5000 nM | IC50 (BEN): > 5000 nM | IC50 (BFTC-905): 1560 nM | IC50 (BT-549): > 5000 nM | IC50 (CAL-72): > 5000 nM | IC50 (UACC-62): > 5000 nM | IC50 (UMC-11): > 5000 nM | IC50 (CAMA-1): > 5000 nM
